Test results from patent US8846704B2, “Thiopyrimidine-based compounds and uses thereof” (YM Biosciences Austraila Pty Ltd, priority 2007, dated 2014).

Biological target: T1, FLT-3 tyrosine kinase (Homo sapiens, UniProt P36888)
T1 construct: purchased Upstate Cell Signalling Solutions, CA, USA 14-500
T1 sequence (P36888 27-993): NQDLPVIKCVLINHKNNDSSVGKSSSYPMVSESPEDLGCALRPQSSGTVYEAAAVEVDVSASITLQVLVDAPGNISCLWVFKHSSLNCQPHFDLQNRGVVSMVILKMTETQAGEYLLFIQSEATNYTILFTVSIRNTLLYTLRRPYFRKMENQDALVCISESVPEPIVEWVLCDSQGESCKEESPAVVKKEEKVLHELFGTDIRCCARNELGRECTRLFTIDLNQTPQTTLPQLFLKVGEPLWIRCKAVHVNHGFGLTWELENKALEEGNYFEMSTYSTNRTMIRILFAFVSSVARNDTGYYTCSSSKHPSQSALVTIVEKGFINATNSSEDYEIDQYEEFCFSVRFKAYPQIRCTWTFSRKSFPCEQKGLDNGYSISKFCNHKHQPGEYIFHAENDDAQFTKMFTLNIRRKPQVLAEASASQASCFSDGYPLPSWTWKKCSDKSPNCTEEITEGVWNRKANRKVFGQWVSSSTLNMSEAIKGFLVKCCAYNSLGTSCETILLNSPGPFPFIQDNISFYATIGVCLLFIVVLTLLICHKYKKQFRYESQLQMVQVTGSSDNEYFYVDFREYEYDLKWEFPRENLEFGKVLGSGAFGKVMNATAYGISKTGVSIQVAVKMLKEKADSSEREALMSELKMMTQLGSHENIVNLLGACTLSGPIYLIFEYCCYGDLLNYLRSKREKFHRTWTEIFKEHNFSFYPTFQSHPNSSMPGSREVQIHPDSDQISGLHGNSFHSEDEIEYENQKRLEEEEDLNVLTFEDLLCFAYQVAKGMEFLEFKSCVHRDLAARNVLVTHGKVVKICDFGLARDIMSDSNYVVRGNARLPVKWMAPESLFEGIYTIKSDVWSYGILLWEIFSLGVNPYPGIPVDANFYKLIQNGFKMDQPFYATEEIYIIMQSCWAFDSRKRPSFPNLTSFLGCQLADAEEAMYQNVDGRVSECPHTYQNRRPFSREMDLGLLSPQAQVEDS
Experiment: Alphascreen tyrosine kinase enzyme assay, FLT-3
Format: biochemical
Conditions: FLT3; read-out: FMS, FLT3, or HCK IC50_nM (FLT3)
Procedure: For screening purposes, compounds (in 100% DMSO) were warmed at 37 degrees for at least 20 minutes before use. A […] stock was initially made in assay buffer, where the final concentration of DMSO was 0.3%. The stocks were then diluted in 384 well Optiplates (Packard) where the final concentration of the compound was […].
FLT-3 tyrosine kinase enzyme was purchased from Upstate Cell Signalling Solutions, CA, USA (flt-3 catalog #: 14-500).
Kinase assays were performed in 384 well Optiplates (Packard) using an Alphascreen Protein Tyrosine Kinase PY100 detection kit The compounds were pre-incubated with affinity purified PTK domain in the presence of phosphotyrosine assay buffer (10 mM HEPES, pH 7.5, 100 mM MgCl2, 25 mM NaCl, […] and 0.1% Tween 20) for 20 minutes. The compounds were then incubated with substrate in the presence of ATP. The substrate used was susbtrate-1 with the sequence biotin-EGPWLEEEEEAYGWMDF-NH2 [SEQ. ID. NO. 13] (final concentration […]). For HCK 80 μm ATP was used and incubated for 60 minutes. Alphascreen phosphotyrosine acceptor beads followed by streptavidin donor beads at a concentration of 1/100 in stop buffer were added to each well under subdued light and incubated for 2-3 hours., The Alphascreen plates were read on a Packard Fusion Alpha instrument.

COc1cc(Nc2nccc(Sc3ccc(NCC#N)cc3)n2)cc(OC)c1OC [Compound 52, 2-(4-(2-(3,4,5-trimethoxyphenylao)pyrimidin-4-ylthio)phenylao)acetonitrile]
IC50: < 0.5 µM
